Holding throughout (type): biochemical
Experiment [1] concerns the target T1, PPIP5K1 (Homo sapiens, UniProt Q6PFW1, R399A).
T1 construct: full-length human PPIP5K1
T1 sequence (Q6PFW1 1-1433 R399A): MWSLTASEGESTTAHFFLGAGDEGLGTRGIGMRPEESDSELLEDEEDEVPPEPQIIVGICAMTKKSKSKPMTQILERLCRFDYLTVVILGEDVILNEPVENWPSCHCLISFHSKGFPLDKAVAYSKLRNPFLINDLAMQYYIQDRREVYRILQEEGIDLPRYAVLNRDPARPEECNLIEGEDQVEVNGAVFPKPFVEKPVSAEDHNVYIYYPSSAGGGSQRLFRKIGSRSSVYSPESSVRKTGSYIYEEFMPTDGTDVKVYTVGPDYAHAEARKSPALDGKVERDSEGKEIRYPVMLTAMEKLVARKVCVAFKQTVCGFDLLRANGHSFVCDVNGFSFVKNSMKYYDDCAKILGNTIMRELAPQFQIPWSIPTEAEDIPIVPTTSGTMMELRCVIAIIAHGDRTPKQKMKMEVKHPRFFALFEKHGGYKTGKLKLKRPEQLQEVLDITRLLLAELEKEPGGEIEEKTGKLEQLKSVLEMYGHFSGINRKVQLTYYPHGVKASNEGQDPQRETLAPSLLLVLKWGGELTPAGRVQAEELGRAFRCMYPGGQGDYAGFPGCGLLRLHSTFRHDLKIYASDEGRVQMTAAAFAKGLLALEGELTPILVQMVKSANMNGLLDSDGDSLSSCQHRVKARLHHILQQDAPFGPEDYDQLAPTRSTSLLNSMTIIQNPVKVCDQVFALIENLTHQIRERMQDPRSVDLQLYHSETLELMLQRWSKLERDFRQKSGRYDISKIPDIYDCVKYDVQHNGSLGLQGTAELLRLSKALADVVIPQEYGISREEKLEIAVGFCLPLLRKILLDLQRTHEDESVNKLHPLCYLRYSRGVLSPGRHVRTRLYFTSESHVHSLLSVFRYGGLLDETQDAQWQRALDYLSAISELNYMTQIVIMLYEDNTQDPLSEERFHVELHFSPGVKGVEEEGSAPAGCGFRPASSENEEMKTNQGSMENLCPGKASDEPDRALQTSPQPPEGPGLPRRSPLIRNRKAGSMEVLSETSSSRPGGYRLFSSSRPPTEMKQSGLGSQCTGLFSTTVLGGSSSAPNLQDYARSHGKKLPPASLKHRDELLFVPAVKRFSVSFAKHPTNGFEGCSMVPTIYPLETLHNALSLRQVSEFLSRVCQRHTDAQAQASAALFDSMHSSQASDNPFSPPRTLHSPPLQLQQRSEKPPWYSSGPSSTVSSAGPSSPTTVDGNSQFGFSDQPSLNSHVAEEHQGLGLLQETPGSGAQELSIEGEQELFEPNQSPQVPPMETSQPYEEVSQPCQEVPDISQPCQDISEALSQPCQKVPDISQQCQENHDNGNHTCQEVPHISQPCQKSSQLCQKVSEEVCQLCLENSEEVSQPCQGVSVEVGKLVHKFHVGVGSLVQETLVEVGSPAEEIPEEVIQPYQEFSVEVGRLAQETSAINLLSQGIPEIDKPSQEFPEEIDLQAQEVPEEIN
Kind of experiment: kinase assay of purified phosphatase-compromised mutant, […] h, HPLC.

In experiment [2] the target is T2, PPIP5K1 (Homo sapiens, UniProt Q6PFW1).
T2 construct: full-length human PPIP5K1
T2 sequence (Q6PFW1 1-1433): T1 sequence (Q6PFW1 1-1433 R399A) with A399R
Kind of experiment: kinase assay of purified recombinant enzyme with […]-[3H]InsP7, HPLC, first-order conditions.

In experiment [3] the target is T2, PPIP5K1. The experiment can be described thus: InsP8 phosphatase assay with [3H]InsP8, HPLC, dose-response.
The target in experiment [4] is T2, PPIP5K1. Kind of experiment: phosphatase assay of purified recombinant enzyme, […] InsP8 with [3H]InsP8, HPLC.

Numbering of substitutions follows the chain as printed.

As to `O=P(O)(O)O[C@H]1[C@@H](OP(=O)(O)O)[C@H](OP(=O)(O)O)[C@@H](OP(=O)(O)OP(=O)(O)O)[C@H](OP(=O)(O)O)[C@H]1OP(=O)(O)O` [5-InsP7], the “% / ng protein” value at PPIP5K1 [1] was 6.9 ± 0.01 % / ng protein. In addition, the “kinase assay of purified recombinant enzyme with 5-[3H]InsP7, HPLC, first-order” value at PPIP5K1 [2] was 0.07 min⁻¹.
Turning to `CCCCCCCC(=O)OC[C@H](COP(=O)(O)O[C@H]1[C@H](O)[C@@H](O)[C@H](OP(=O)(O)O)[C@@H](OP(=O)(O)O)[C@H]1O)OC(=O)CCCCCCC` [C8-PtdIns(3,4)P2], at PPIP5K1 [3], the IC50 is about 25 µM.
With `CCCCCCCC(=O)OC[C@H](COP(=O)(O)O[C@H]1[C@H](O)[C@@H](OP(=O)(O)O)[C@H](OP(=O)(O)O)[C@@H](OP(=O)(O)O)[C@H]1O)OC(=O)CCCCCCC` [C8-PtdIns(3,4,5)P3], the half-inhibitory concentration (IC50) on PPIP5K1 [3] is about 35 µM.
In the case of `CCCCCCCC(=O)OC[C@H](COP(=O)(O)O[C@@H]1[C@H](O)[C@H](O)[C@@H](OP(=O)(O)O)[C@H](OP(=O)(O)O)[C@H]1O)OC(=O)CCCCCCC` [C8-PtdIns(4,5)P2], the IC50 against PPIP5K1 [3] was about 40 µM.
As for `O=P(O)(O)O[C@@H]1[C@@H](OP(=O)(O)O)[C@H](OP(=O)(O)OP(=O)(O)O)[C@@H](OP(=O)(O)O)[C@H](OP(=O)(O)OP(=O)(O)O)[C@@H]1OP(=O)(O)O` [InsP8], the “phosphatase assay of purified recombinant enzyme, 1 μM InsP8 with [3H]InsP8, HPL” value at PPIP5K1 [4] amounted to 7 ± 1 nmol/mg protein/min.

By IC50 is commonly meant the midpoint of a concentration-inhibition curve. A high value points to weaker potency in that assay.

For the origin of these results see PMC5857911, “Inositol pyrophosphate synthesis by diphosphoinositol pentakisphosphate kinase-1 is regulated by phosphatidylinositol(4,5)bisphosphate” (Bioscience Reports, 2018).
